According to ChEMBL document CHEMBL1201862, “PubChem BioAssay data set” (2004):
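These data come from cells grown in 96-well plates and exposed to compound for 48 hours at five concentrations. Here, GI50 denotes the concentration required for 50% inhibition of growth.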 Activity calls are given as the source filed them. Rule as the data show it: active = GI50 up to about 1.1 µM and inactive = higher. Square brackets hold non-standard residues; d marks the D form. Peptide text beside a SMILES is read from it. * marks the point of attachment. ξ: configuration not given here. ξF = NC(Cc1ccccc1)C(=O)O; Cbz = O=C(OCc1ccccc1)*; Aib = CC(C)(N)C(=O)O

Experiments:
Assay in all cases: growth of human tumour cells (NCI), 48 h
SF-295 = system: SF-295
SK-OV-3 = system: SK-OV-3
HT-29 = system: HT-29
HL-60 = system: HL-60
SNB-19 = system: SNB-19
LOX IMVI = system: LOX IMVI
NCI-H226 = system: NCI-H226
OVCAR-4 = system: OVCAR-4
HOP-62 = system: HOP-62
SK-MEL-2 = system: SK-MEL-2
HCT-116 = system: HCT-116
COLO 205 = system: COLO 205
PC-3 = system: PC-3
UO-31 = system: UO-31
A498 = system: A498
CCRF-CEM = system: CCRF-CEM
SN12C = system: SN12C
KM12 = system: KM12
Hs-578T = system: Hs-578T

Structure (SMILES) | GI50 (SF-295) | GI50 (SK-OV-3) | GI50 (HT-29) | GI50 (HL-60) | GI50 (SNB-19) | GI50 (LOX IMVI) | GI50 (NCI-H226) | GI50 (OVCAR-4) | GI50 (HOP-62) | GI50 (SK-MEL-2) | GI50 (HCT-116) | GI50 (COLO 205) | GI50 (PC-3) | GI50 (UO-31) | GI50 (A498) | GI50 (CCRF-CEM) | GI50 (SN12C) | GI50 (KM12) | GI50 (Hs-578T)
CCCCCCCCCCCCCCCC(=O)OCC(O)C1OC(=O)C(O)=C1O (centres undefined) | 20 µM (inactive) | 35.6 µM (inactive) | 12.8 µM (inactive) | 29.5 µM (inactive) | 30.1 µM (inactive) | 26.2 µM (inactive) | 22.9 µM (inactive) | 52.8 µM (inactive) | 31.4 µM (inactive) | 34.1 µM (inactive) | 19.3 µM (inactive) | > 100 µM (inactive) | 92 µM (inactive) | 28.9 µM (inactive) | 35.7 µM (inactive) | 23.7 µM (inactive) | 29.9 µM (inactive) | 23.4 µM (inactive) | –
CCOC(=O)c1c2c(n(-c3ccc(OC)cc3)c1C)C(=O)C(=O)c1ccccc1-2 | 1.61 µM (inactive) | 2.38 µM (inactive) | 2.34 µM (inactive) | 0.0261 µM (active) | 1.36 µM (inactive) | 0.789 µM (active) | 1.75 µM (inactive) | 0.624 µM (active) | 1.78 µM (inactive) | 3.27 µM (inactive) | 1.33 µM (inactive) | 2.2 µM (inactive) | 2.18 µM (inactive) | 2.12 µM (inactive) | – | 1.27 µM (inactive) | 1.58 µM (inactive) | 1.82 µM (inactive) | 2.18 µM (inactive)
CN(C)CCCn1c(Cc2ccccc2)nc2cc(C(F)(F)F)ccc21 | 17.1 µM (inactive) | 23.5 µM (inactive) | 20.7 µM (inactive) | – | 24.1 µM (inactive) | 18 µM (inactive) | 40.3 µM (inactive) | 18.6 µM (inactive) | 26.4 µM (inactive) | 17.5 µM (inactive) | 18 µM (inactive) | 16.1 µM (inactive) | 29 µM (inactive) | 1.91 µM (inactive) | 15 µM (inactive) | 19.4 µM (inactive) | 41.6 µM (inactive) | 15.7 µM (inactive) | 45.6 µM (inactive)
Cc1cccc2c1CC(Cc1ccccc1C(=O)O)C2=O (centres undefined) | > 100 µM (inactive) | > 100 µM (inactive) | > 100 µM (inactive) | > 100 µM (inactive) | > 100 µM (inactive) | > 100 µM (inactive) | > 100 µM (inactive) | > 100 µM (inactive) | > 100 µM (inactive) | > 100 µM (inactive) | > 100 µM (inactive) | > 100 µM (inactive) | > 100 µM (inactive) | > 100 µM (inactive) | – | > 100 µM (inactive) | > 100 µM (inactive) | > 100 µM (inactive) | > 100 µM (inactive)
Cc1cc(S(=O)(=O)O)c(NC(=O)c2oc3cc(O)ccc3c(=O)c2C)cc1Cl | > 100 µM (inactive) | > 100 µM (inactive) | > 100 µM (inactive) | – | > 100 µM (inactive) | > 100 µM (inactive) | > 100 µM (inactive) | > 100 µM (inactive) | > 100 µM (inactive) | > 100 µM (inactive) | > 100 µM (inactive) | – | > 100 µM (inactive) | > 100 µM (inactive) | – | – | > 100 µM (inactive) | > 100 µM (inactive) | > 100 µM (inactive)
O=c1cc(-c2ccccc2)[nH]c2ccc(S)cc12 | 38.5 µM (inactive) | 23.7 µM (inactive) | 29 µM (inactive) | 35.7 µM (inactive) | 64.4 µM (inactive) | – | 16.1 µM (inactive) | 57.1 µM (inactive) | 70.3 µM (inactive) | – | 24.4 µM (inactive) | 38.3 µM (inactive) | 20.6 µM (inactive) | – | – | 22.1 µM (inactive) | 18.3 µM (inactive) | 28.8 µM (inactive) | 26.2 µM (inactive)
COc1ccc(/N=N/C(=N\c2ccc(Cl)cc2)c2ccc(N(CCC#N)CCC#N)cc2)cc1 | 2.2 µM (inactive) | > 100 µM (inactive) | > 100 µM (inactive) | – | > 100 µM (inactive) | – | > 100 µM (inactive) | 10.1 µM (inactive) | 79.3 µM (inactive) | 0.851 µM (active) | 43.9 µM (inactive) | 5.19 µM (inactive) | 25.5 µM (inactive) | 5.06 µM (inactive) | 10.4 µM (inactive) | < 0.01 µM (active) | > 100 µM (inactive) | 15.6 µM (inactive) | 87.9 µM (inactive)
Cn1c2ccccc2c(=NNc2ccc(C(=O)O)cc2)c2ccccc21 | 20.8 µM (inactive) | 17.3 µM (inactive) | 13.1 µM (inactive) | 14.6 µM (inactive) | 21.8 µM (inactive) | 10.6 µM (inactive) | 17.7 µM (inactive) | 12.9 µM (inactive) | 18.8 µM (inactive) | 19.6 µM (inactive) | 7.5 µM (inactive) | 15.3 µM (inactive) | 14.1 µM (inactive) | 15.1 µM (inactive) | – | 15.2 µM (inactive) | 18.1 µM (inactive) | 15.7 µM (inactive) | 18.7 µM (inactive)
O=C(O)C12CCC(CC1=O)C2 (centres undefined) | > 100 µM (inactive) | > 100 µM (inactive) | > 100 µM (inactive) | > 100 µM (inactive) | > 100 µM (inactive) | > 100 µM (inactive) | > 100 µM (inactive) | > 100 µM (inactive) | > 100 µM (inactive) | > 100 µM (inactive) | – | > 100 µM (inactive) | > 100 µM (inactive) | > 100 µM (inactive) | – | > 100 µM (inactive) | > 100 µM (inactive) | > 100 µM (inactive) | > 100 µM (inactive)
Cc1nc2c(Cl)cc(Cl)cc2c2c1CCO2 | > 100 µM (inactive) | – | > 100 µM (inactive) | 65.3 µM (inactive) | > 100 µM (inactive) | > 100 µM (inactive) | > 100 µM (inactive) | > 100 µM (inactive) | – | > 100 µM (inactive) | > 100 µM (inactive) | > 100 µM (inactive) | – | 67 µM (inactive) | 67.1 µM (inactive) | 48.4 µM (inactive) | > 100 µM (inactive) | > 100 µM (inactive) | > 100 µM (inactive)
COc1ccc(CNc2cnc3cc(N)ccc3n2)cc1OC | > 100 µM (inactive) | – | > 100 µM (inactive) | > 100 µM (inactive) | > 100 µM (inactive) | > 100 µM (inactive) | > 100 µM (inactive) | > 100 µM (inactive) | > 100 µM (inactive) | > 100 µM (inactive) | > 100 µM (inactive) | > 100 µM (inactive) | – | > 100 µM (inactive) | – | > 100 µM (inactive) | > 100 µM (inactive) | > 100 µM (inactive) | –
CCN(CC)/[N+]([O-])=N/OS(=O)(=O)N(C)C | > 100 µM (inactive) | > 100 µM (inactive) | > 100 µM (inactive) | > 100 µM (inactive) | > 100 µM (inactive) | > 100 µM (inactive) | > 100 µM (inactive) | > 100 µM (inactive) | > 100 µM (inactive) | – | > 100 µM (inactive) | > 100 µM (inactive) | – | – | > 100 µM (inactive) | > 100 µM (inactive) | > 100 µM (inactive) | > 100 µM (inactive) | > 100 µM (inactive)
OCCCSc1ccccc1SCCCO | > 100 µM (inactive) | > 100 µM (inactive) | > 100 µM (inactive) | > 100 µM (inactive) | > 100 µM (inactive) | > 100 µM (inactive) | – | > 100 µM (inactive) | > 100 µM (inactive) | – | > 100 µM (inactive) | > 100 µM (inactive) | > 100 µM (inactive) | > 100 µM (inactive) | – | > 100 µM (inactive) | > 100 µM (inactive) | > 100 µM (inactive) | –
CC(C)C(C/C=C1\CC(CO)(COC(=O)C2CCCCC2)OC1=O)C(C)C (centres undefined) | 16.3 µM (inactive) | > 100 µM (inactive) | 30.6 µM (inactive) | – | 16.3 µM (inactive) | 15.7 µM (inactive) | 18.2 µM (inactive) | 18 µM (inactive) | 13.2 µM (inactive) | > 100 µM (inactive) | 19.2 µM (inactive) | 10.3 µM (inactive) | 18.2 µM (inactive) | 17.4 µM (inactive) | 44.8 µM (inactive) | 16.9 µM (inactive) | 16.7 µM (inactive) | 18.4 µM (inactive) | 13.2 µM (inactive)
CC(C)(NC(=O)OCc1ccccc1)C(=O)NC(Cc1ccccc1)C(=O)O (centres undefined) (Cbz-[Aib]-[ξF]-OH) | > 100 µM (inactive) | > 100 µM (inactive) | > 100 µM (inactive) | – | > 100 µM (inactive) | > 100 µM (inactive) | > 100 µM (inactive) | > 100 µM (inactive) | > 100 µM (inactive) | > 100 µM (inactive) | > 100 µM (inactive) | > 100 µM (inactive) | > 100 µM (inactive) | > 100 µM (inactive) | > 100 µM (inactive) | > 100 µM (inactive) | > 100 µM (inactive) | > 100 µM (inactive) | > 100 µM (inactive)
O=C1C(CO)=C[C@@H](O)[C@H]2O[C@@H]12 [EPOXYDON] | > 100 µM (inactive) | > 100 µM (inactive) | > 100 µM (inactive) | 26 µM (inactive) | – | 23.1 µM (inactive) | > 100 µM (inactive) | 17.7 µM (inactive) | > 100 µM (inactive) | > 100 µM (inactive) | 31.1 µM (inactive) | > 100 µM (inactive) | – | > 100 µM (inactive) | > 100 µM (inactive) | 30.7 µM (inactive) | 18.4 µM (inactive) | > 100 µM (inactive) | > 100 µM (inactive)
